We go through 37 compounds from patent EP4563146A1 (IRBM S.P.A., priority 2023, dated 2025).

The structures appear in SMILES notation. Read-outs that look alike come from different tables or passages of the source.

In this assay the test system is ZIKV replicon. The assay is described as follows: ZIKV replication inhibition assay (NanoLuc replicon in Vero cells). Conditions: Zika virus, Vero, 72 h. On the technique in general: A replicon is a self-replicating genome or part of one, used to study replication in cells.
[1] abbreviates: read-out: ZIKA Cell_Nanoluc, Vero cells with stable ZIKV replicon, 72 h, Nano-Glo readout.

Consider `O=C(Cc1ccccc1)Nc1cc(NC(=O)[N-]c2c[n+](Cc3ccc(CO)cn3)no2)cc(C(F)(F)F)c1` [Example 116, (3-((5-(Hydroxymethyl)pyridin-2-yl)methyl)-1,2,3-oxadiazol-3-ium-5-yl)((3-(2-phenylacetamido)-5-(trifluoromethyl)phenyl)carbamoyl)amide], for which, under setting [1], the EC50 lay within 1000 to 20000 nM.
Still for that read-out and setting: for `COc1ncc(-c2ccc(C[n+]3cc([N-]C(=O)Nc4cc(NS(=O)(=O)Cc5ccccc5)cc(C(F)(F)F)c4)on3)cc2)c(C)n1` [Example 10, (3-(4-(2-Methoxy-4-methylpyrimidin-5-yl)benzyl)-1,2,3-oxadiazol-3-ium-5-yl)((3-((phenylmethyl)sulfonamido)-5-(trifluoromethyl)phenyl)carbamoyl)amide] the value was 100 to 1000 nM.
The same measure, in the same setting: for `CCOC(=O)CN1CCC(C[n+]2cc([N-]C(=O)Nc3cc(NC(=O)Cc4ccccc4)cc(C(F)(F)F)c3)on2)CC1` [Example 140, (3-((1-(2-Ethoxy-2-oxoethyl)piperidin-4-yl)methyl)-1,2,3-oxadiazol-3-ium-5-yl)((3-(2-phenylacetamido)-5-(trifluoromethyl)phenyl)-carbamoyl)amide] the value was 100 to 1000 nM.
As to `CN1CCCCC1C[n+]1cc([N-]C(=O)Nc2cc(NC(=O)Cc3ccccc3)cc(C3CC3)c2)on1` (stereo not shown) [Example 127], the EC50 (read-out: ZIKA Cell_Nanoluc) fell in the range of 1000 to 20000 nM.
In the case of `O=C([N-]c1c[n+](Cc2ccccn2)no1)Nc1cc(NC(=O)C2CC(Cc3ccccc3)C2)cc(C(F)(F)F)c1` (stereo not shown) [Example 68], for the setting “read-out: ZIKA Cell_Nanoluc”, the EC50 was 1000 to 20000 nM.
Still for that read-out and setting: for `O=C([N-]c1c[n+](Cc2ccccn2)no1)Nc1cc(NC(=O)C2(Oc3ccc(Cl)cc3)COC2)cc(C(F)(F)F)c1` [Example 83] the value was 1000 to 20000 nM; for `O=C([N-]c1c[n+](Cc2ccccn2)no1)Nc1cc(NC(=O)c2ccc(CN3CCOCC3)o2)cc(C(F)(F)F)c1` [Example 30], 1000 to 20000 nM.
For `Cc1cc(NC(=O)Cc2ccccc2)cc(NC(=O)[N-]c2c[n+](Cc3ccccn3)no2)c1` [Example 57, ((3-Methyl-5-(2-phenylacetamido)phenyl)carbamoyl)(3-(pyridin-2-ylmethyl)-1,2,3-oxadiazol-3-ium-5-yl)amide], under setting [1], the EC50 was greater than 20000 nM.
As to `O=C([N-]c1c[n+](Cc2ccccn2)no1)Nc1cc(NC(=O)C2CC(F)(F)C23CCC3)cc(C(F)(F)F)c1` (stereo not shown) [Example 85], under “read-out: ZIKA Cell_Nanoluc”, the EC50 lay in the range of 1000 to 20000 nM.
On the same count and under the same terms, as for `O=C([N-]c1c[n+](Cc2ccccn2)no1)Nc1cc(NC(=O)[C@H]2C[C@](O)(c3ccccn3)C2)cc(C(F)(F)F)c1` [Example 69], the figure is greater than 20000 nM.
As for `NCc1ccccc1-c1ccc(C[n+]2cc([N-]C(=O)Nc3cc(NC(=O)Cc4ccccc4)cc(C(F)(F)F)c3)on2)nc1` [Example 5, (3-((5-(2-(Aminomethyl)phenyl)pyridin-2-yl)methyl)-1,2,3-oxadiazol-3-ium-5-yl)((3-(2-phenylacetamido)-5-(trifluoromethyl)phenyl)carbamoyl)amide], the EC50 under setting [1] was 1000 to 20000 nM.
On the same count and under the same terms, as for `NC1C2COCC1CC([n+]1cc([N-]C(=O)Nc3cc(NC(=O)Cc4ccccc4)cc(C(F)(F)F)c3)on1)C2` (stereo not shown) [Example 112, (3-(9-Amino-3-oxabicyclo[3.3.1]nonan-7-yl)-1,2,3-oxadiazol-3-ium-5-yl)((3-(2-phenylacetamido)-5-(trifluoromethyl)phenyl)carbamoyl)amide], the figure is greater than 20000 nM; as for `O=C([N-]c1c[n+](Cc2ccccn2)no1)Nc1cc(NC(=O)c2ccn3c2COCC3)cc(C(F)(F)F)c1` [Example 81, ((3-(3,4-Dihydro-1H-pyrrolo[2,1-c][1,4]oxazine-8-carboxamido)-5-(trifluoromethyl)-phenyl)carbamoyl)(3-(pyridin-2-ylmethyl)-1,2,3-oxadiazol-3-ium-5-yl)amide], 1000 to 20000 nM.
On to `CN1CC(C(=O)Nc2cc(NC(=O)[N-]c3c[n+](Cc4ccccn4)no3)cc(C(F)(F)F)c2)C1` [Example 49], for which, where the note is “read-out: ZIKA Cell_Nanoluc”, the EC50 lay within 1000 to 20000 nM.
On the same count and under the same terms, for `O=C([N-]c1c[n+](Cc2ccccn2)no1)Nc1cc(NC(=O)c2ccon2)cc(C(F)(F)F)c1` [Example 44] the value was 1000 to 20000 nM; for `O=C(Cc1ccccc1)Nc1cc(NC(=O)[N-]c2c[n+](CC3CCNCC3)no2)cc(C(F)(F)F)c1` [Example 120], greater than 20000 nM.
Take `O=C([N-]c1c[n+](Cc2ccccn2)no1)Nc1cc(NC(=O)C23CC(C(=O)O)(C2)C3)cc(C(F)(F)F)c1` [Example 52, ((3-(3-Carboxybicyclo[1.1.1]pentane-1-carboxamido)-5-(trifluoromethyl)phenyl)-carbamoyl)(3-(pyridin-2-ylmethyl)-1,2,3-oxadiazol-3-ium-5-yl)amide]: the EC50 under setting [1] fell in the range of 1000 to 20000 nM.
On the same count and under the same terms, as for `Cc1nc(N)ncc1-c1ccc(C[n+]2cc([N-]C(=O)Nc3cc(NC(=O)Cc4ccccc4)cc(C(F)(F)F)c3)on2)nc1` [Example 25, (3-((5-(2-Amino-4-methylpyrimidin-5-yl)pyridin-2-yl)methyl)-1,2,3-oxadiazol-3-ium-5-yl)((3-(2-phenylacetamido)-5-(trifluoromethyl)phenyl)carbamoyl)amide], the figure is 1000 to 20000 nM.
Regarding `O=C([N-]c1c[n+](Cc2ccccn2)no1)Nc1cc(NC(=O)c2cccc(Oc3ccccc3)c2)cc(C(F)(F)F)c1` [Example 31], the EC50 (read-out: ZIKA Cell_Nanoluc) is 1000 to 20000 nM.
Take `O=C(CC1CCC1)Nc1cc(NC(=O)[N-]c2c[n+](Cc3ccccn3)no2)cc(C(F)(F)F)c1` [Example 54]: the EC50 (read-out: ZIKA Cell_Nanoluc) lay within 1000 to 20000 nM.
Consider `COc1ncc(-c2ccc(C[n+]3cc([N-]C(=O)Nc4cc(NC(=O)Cc5ccccc5)cc(C(F)(F)F)c4)on3)nc2)c(C)n1` [Example 13, (3-((5-(2-Methoxy-4-methylpyrimidin-5-yl)pyridin-2-yl)methyl)-1,2,3-oxadiazol-3-ium-5-yl)((3-(2-phenylacetamido)-5-(trifluoromethyl)phenyl)carbamoyl)amide], for which the EC50 under setting [1] is 100 to 1000 nM.
Consider `O=C([N-]c1c[n+](Cc2ccccn2)no1)Nc1cc(NC(=O)c2cnn(Cc3ccccc3)c2)cc(C(F)(F)F)c1` [Example 35], for which the EC50 (read-out: ZIKA Cell_Nanoluc) was in the range of 1000 to 20000 nM.
The same measure, in the same setting: as for `NCC12CC(C[n+]3cc([N-]C(=O)Nc4cc(NC(=O)Cc5ccccc5)cc(C(F)(F)F)c4)on3)(C1)C2` [Example 103], the figure is greater than 20000 nM.
Same read-out and setting: as for `O=C([N-]c1c[n+](C[C@H]2CC[C@@H](NCC(F)(F)F)CC2)no1)Nc1cc(N2CCC(c3ccccc3)C2=O)cc(C(F)(F)F)c1` (stereo partly shown) [Example 136, ((3-(2-Oxo-3-phenylpyrrolidin-1-yl)-5-(trifluoromethyl)phenyl)carbamoyl)(3-(((1s,4s)-4-((2,2,2-trifluoroethyl)amino)cyclohexyl)methyl)-1,2,3-oxadiazol-3-ium-5-yl)amide], the figure is 100 to 1000 nM.
Turning to `O=C(CS(=O)(=O)c1ccccc1)Nc1cc(NC(=O)[N-]c2c[n+](Cc3ccccn3)no2)cc(C(F)(F)F)c1` [Example 43], the EC50 (read-out: ZIKA Cell_Nanoluc) was 1000 to 20000 nM.
As to `COc1ncc(-c2ccc(C[n+]3cc([N-]C(=O)Nc4cc(NC(C)=O)cc(C(F)(F)F)c4)on3)cc2)c(C)n1` [Example 11], the EC50 (read-out: ZIKA Cell_Nanoluc) was in the range of 1000 to 20000 nM.
On to `O=C(Cc1ccccc1)Nc1cc(NC(=O)[N-]c2c[n+](Cc3ccccc3)no2)cc(C(F)(F)F)c1` [Example 28, (3-Benzyl-1,2,3-oxadiazol-3-ium-5-yl)((3-(2-phenylacetamido)-5-(trifluoro-methyl)phenyl)carbamoyl)amide], for which the EC50 under setting [1] lay in the range of 1000 to 20000 nM.
With `COc1ncc(-c2ccc(C[n+]3cc([N-]C(=O)Nc4cc(NC(=O)Cc5ccccc5Cl)cc(C(F)(F)F)c4)on3)cc2)c(C)n1` [Example 21, ((3-(2-(2-Chlorophenyl)acetamido)-5-(trifluoromethyl)phenyl)carbamoyl)(3-(4-(2-methoxy-4-methylpyrimidin-5-yl)benzyl)-1,2,3-oxadiazol-3-ium-5-yl)amide], the EC50 under setting [1] lay within 100 to 1000 nM.
On to `O=C([N-]c1c[n+](Cc2ccccn2)no1)Nc1cc(NC(=O)C2CN(C3CC3)C2)cc(C(F)(F)F)c1` [Example 77], for which the EC50 (read-out: ZIKA Cell_Nanoluc) was greater than 20000 nM.
On to `O=C(Cc1ccccc1)Nc1cc(Cl)cc(NC(=O)[N-]c2c[n+](Cc3ccccn3)no2)c1` [Example 58, ((3-Chloro-5-(2-phenylacetamido)phenyl)carbamoyl)(3-(pyridin-2-ylmethyl)-1,2,3-oxadiazol-3-ium-5-yl)amide], for which the EC50 under setting [1] was 1000 to 20000 nM.
Take `Cc1nc(CC(=O)Nc2cc(NC(=O)[N-]c3c[n+](Cc4ccccn4)no3)cc(C(F)(F)F)c2)cs1` [Example 41, ((3-(2-(2-Methylthiazol-4-yl)acetamido)-5-(trifluoromethyl)phenyl)-carbamoyl)(3-(pyridin-2-ylmethyl)-1,2,3-oxadiazol-3-ium-5-yl)amide]: the EC50 under setting [1] lay within 1000 to 20000 nM.
As to `O=C([N-]c1c[n+](Cc2ccccn2)no1)Nc1cc(NC(=O)c2cncn2C2CC2)cc(C(F)(F)F)c1` [Example 75], the EC50 (read-out: ZIKA Cell_Nanoluc) is greater than 20000 nM.
Regarding `COc1ncc(-c2ccc(C[n+]3cc([N-]C(=O)Nc4cc(NC(=O)CCc5ccccc5)cc(C(F)(F)F)c4)on3)cc2)c(C)n1` [Example 9, (3-(4-(2-Methoxy-4-methylpyrimidin-5-yl)benzyl)-1,2,3-oxadiazol-3-ium-5-yl)((3-(3-phenylpropanamido)-5-(trifluoromethyl)phenyl)carbamoyl)amide], the EC50 under setting [1] lay within 100 to 1000 nM.
The same measure, in the same setting: as for `O=C([N-]c1c[n+](Cc2ccccn2)no1)Nc1cc(NC(=O)c2ccc3[nH]cnc3c2)cc(C(F)(F)F)c1` [Example 29, ((3-(1H Benzo[d]imidazole-5-carboxamido)-5-(trifluoromethyl)phenyl)-carbamoyl)(3-(pyridin-2-ylmethyl)-1,2,3-oxadiazol-3-ium-5-yl)amide], the figure is 1000 to 20000 nM; as for `CN1CCC(C[n+]2cc([N-]C(=O)Nc3cc(NC(=O)Cc4ccccc4)cc(C(F)(F)F)c3)on2)CC1` [Example 106, (3-((1-Methylpiperidin-4-yl)methyl)-1,2,3-oxadiazol-3-ium-5-yl)((3-(2-phenylacetamido)-5-(trifluoromethyl)phenyl)carbamoyl)amide], 1000 to 20000 nM.
For `Cc1cccc2c1OCC2C(=O)Nc1cc(NC(=O)[N-]c2c[n+](Cc3ccccn3)no2)cc(C(F)(F)F)c1` (stereo not shown) [Example 67], the EC50 (read-out: ZIKA Cell_Nanoluc) lay within 1000 to 20000 nM.
For the compound `O=C(Cc1ccccc1)Nc1cc(NC(=O)[N-]c2c[n+](CC3CCCCN3)no2)cc(C(F)(F)F)c1` (stereo not shown) [Example 125, ((3-(2-Phenylacetamido)-5-(trifluoromethyl)-phenyl)carbamoyl)(3-(piperidin-2-ylmethyl)-1,2,3-oxadiazol-3-ium-5-yl)amide], under setting [1], the EC50 lay in the range of 1000 to 20000 nM.
